From US20160287497A1, “USE AS A DEODORANT AGENT OF A SALIFIED SALICYLIC ACID DERIVATIVE, ALONE OR IN A MIXTURE” (L'OREAL, priority 2013, published 2016)

Columns and labels:
[1] = tested on: Corynebacterium xerosis; test: Effect on Corynebacterium xerosis: growth inhibition in microplate, MIC; format: cell-based
Description: • Test principle: contacting of decreasing concentrations of compounds under evaluation with an identical inoculum of microorganisms in a culture medium suitable for the growth of C. xerosis.
The dilutions of the compounds under evaluation are performed in agar at 1:1000, making it possible, for dispersible compounds under evaluation, to do away with the use of a solvent which could introduce bias in the evaluation of the compounds. The concentration range chosen was: 1%, 0.3%, 0.03% and 0.003%. Each concentration was tested in triplicate.
To ensure that the potential inhibitory activity was not associated with a pH effect, the pH of the culture medium was verified at the end of incubation.
The compound mixtures M0 and M2 were evaluated based on this protocol, along with n-octanoyl-5-salicylic acid (comparison).

[2] = Anti-odor effect: ex-vivo olfactory evaluation test on incubated sweat
Description: The deodorant activity was evaluated in the ex-vivo olfactory evaluation test, on incubated sweat.
Each compound under evaluation was introduced at a rate of 0.3 mg into 1 mL of sweat. The compounds under evaluation were weighed in 25 or 30 mL pill bottles and 1 mL from a pool of fresh sweat was then added. The pill bottles were hermetically sealed and placed in an incubator at 35° C. for 24 hours. After being removed from the incubator, the pill bottles were opened and allowed to cool to ambient temperature.
A panel of sixteen people performed an olfactory analysis of each pill bottle. The efficacy of each compound evaluated was determined in comparison to a negative control (incubated sweat alone).

**Q.** For CCCCCCCC(=O)c1ccc(O)c(C(=O)O)c1 [N-octanoyl-5-salicylic acid, n-octanoyl-5-salicylic acid], which “MIC C. xerosis” value ([1]; incubation 24 to 48 hours, Optical Density 620 nm vs growth control, range tested 1%, 0.3%, 0.03%, 0.003%, triplicate) is on record?
**A.** <0.003%

**Q.** And the “growth of C. xerosis (result in words)” value ([1]; same protocol as Table 1)?
**A.** inhibit the growth of C. xerosis

**Q.** What about the “% Variation incubated sweat intensity” value ([2]; 0.3 mg in 1 mL of sweat, 35° C. for 24 hours, panel of sixteen people, vs incubated sweat alone) of the same compound?
**A.** −57%

**Q.** What about the “unpleasant odor of incubated sweat (result in words)” value ([2]; same protocol as Table 2) of the same compound?
**A.** reduce the unpleasant odor of incubated sweat
